Columns and labels:
[1] = cited from earlier work
[2] = Potency loss at lower concentration 0.2 and 0.5 mg/mL in different infusion bags (HPLC assay); assay type: physicochemical
Method: Method: Loss of potency of Midazolam was assessed using an HPLC based assay method for (i) autoclaved and (ii) unautoclaved formulations (0.2 mg/ml and 0.5 mg/ml) in glass bottle, IC-S infusion bag, IC-S′ infusion bag and IC-PHC infusion bag.

[3] = Terminal sterilization in different packaging material: Midazolam potency by HPLC based assay; assay type: physicochemical
Method: Method: Midazolam formulation samples (i) autoclaved and (ii) unautoclaved, were stored in different packaging materials, i.e. glass bottle, IC-H-AE-1, IC-S, IC-S′ and IC-PHC. Initial potency of Midazolam in such samples was tested using an HPLC based assay method.

[4] = Adsorption behaviour of Midazolam in different bags at variable fill volume (HPLC assay); assay type: physicochemical; details: 1 mg/mL, fill volumes 10, 20, 30, 40 ml
Method: Method: Adsorption behaviour of Midazolam in different bags (IC-S′, IC-S and IC-PHC) was evaluated at four variable fill volumes, i.e. 10 ml, 20 ml, 30 ml and 40 ml. The assay values of autoclaved samples of Midazolam formulation were evaluated using an HPLC based assay method. […] At lowest fill volume, surface area to volume ratio was high resulting higher adsorption of API on contact layer of infusion bags. As fill volume increases surface area to volume ratio decreases leads to lower adsorption and higher assay values. This confirmed the physical adsorption of Midazolam in IC-S infusion bags. […] This also ruled out the possibility of Midazolam adsorption in IC-PHC infusion bags.

[5] = Packaging material screening: Assay of Midazolam HCL Injection in autoclaved and unautoclaved infusion containers; assay type: physicochemical
Method: Manufacturing process: Bulk solution preparation: 80% of the batch size of water for injection (WFI) was collected at a temperature of 20° C. to 25° C. in stainless steel 316L manufacturing tank of suitable capacity. Nitrogen gas was purged to get dissolve oxygen content less than 1 mg/L (ppm), pressure of nitrogen gas and time of purging or flow rate of nitrogen gas were recorded. Sodium chloride was added and dissolved gradually followed by stirring for not less than 10 minutes to ensure complete solubilization and clarity of solution visually. While additional excipients were added as below, the purging was stopped. 1 w/w hydrochloric acid (35 mL/Kg) was added and stirred well for approximately 10 minutes. […] The pH was adjusted to 3.0±0.1 using sufficient quantity of 1 w/w hydrochloric acid and stirred for around 1 h after pH adjustment to ensure complete dissolution of drug, stabilization of pH and until the appearance of the solution was a clear colourless solution. The pH was adjusted at 3.4±0.2 using sufficient quantity of 1 w/w Sodium hydroxide solution, and the volume was made up with dissolved oxygen maintained WFI stored at 20° C. to 25° C. […]

Compound	period over which diluted preparation was stable ([1]; 0.5 mg/ml, diluted with 5% dextrose solution and 0.9% sodium chloride, polyolefin bags, dark, room temperature (Hagan et al.)) [days]	period over which diluted solution remained stable ([1]; 1 mg/ml diluted with 5% dextrose, polyvinyl chloride and polyolefin bags, regardless of storage conditions (Karlage et al.))	potency loss ([2]; IC-PHC infusion bags, 0.2 and 0.5 mg/mL)	potency loss ([2]; IC-PHC infusion containers, 0.2 mg/mL)	potency loss ([2]; IC-PHC infusion containers, 0.5 mg/mL)	potency loss ([2]; IC-S and IC-S′ infusion bags, 0.2 and 0.5 mg/mL)	Midazolam potency loss ([3]; IC-H-AE-1 infusion bags)	Midazolam potency, autoclaved vs un-autoclaved ([3]; IC-PHC infusion bags)	Midazolam potency after autoclaving ([3]; IC-S and IC-S′ infusion bags)	impact of fill volume on potency ([4]; IC-PHC infusion bags)	assay of autoclaved sample vs fill volume ([4]; IC-S infusion bags)	period of stability ([1]; 1 mg/ml in 0.9% sodium chloride, polyvinyl chloride bags, fluorescent light, room temperature (McMullin et al.))	loss in assay or content upon autoclaving and long term storage ([5]; cyclo-olefin polymer or co-polymer as innermost layer of the infusion container)	loss of assay percentage immediately after autoclaving ([5]; infusion bags with inner layer of low density polyethylene, polypropylene, polyolefin copolymer or ethylene propylene copolymer)
Cc1ncc2n1-c1ccc(Cl)cc1C(c1ccccc1F)=NC2.Cl [Midazolam hydrochloride, 8-chloro-6-(2-fluorophenyl)-1-methyl-4H-imidazo[1,5-a][1,4] benzodiazepine hydrochloride]	30	about 27 days												
Cc1ncc2n1-c1ccc(Cl)cc1C(c1ccccc1F)=NC2 [Midazolam]			no potency loss	no potency loss	no potency loss	significant potency loss	Potency loss was also not observed	no significant change	found to decrease after autoclaving	no impact of fill volume on potency	increasing trend with increasing fill volume	about 10 days	substantially no loss in assay	significant loss of assay percentage

Reference: patent US12102594B2, “Infusion bag of Midazolam for intravenous use” (Sun Pharmaceutical Industries Limited, priority 2019, dated 2024)
